Experimental findings from the supplement of paper PMC10307832 are described below.

What all share (assay): relative viability (nuclei count vs DMSO), 5 days (fraction); higher = more cells survive
Compound in experiment [1]: CN1CCC(CC1)OC2=CC(=C(C=C2)NC3=NC=C4C(=N3)N(C(=O)N4C)C5CCCC5)OC [AZ3146] + CS(=O)(=O)CCNCc1ccc(-c2ccc3ncnc(Nc4ccc(OCc5cccc(F)c5)c(Cl)c4)c3c2)o1 [Lapatinib] (partner 2 µM)
Put shortly: (§1)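 Lung cancer cell lines were seeded in 1536-well plates and dosed by pin tool the next day, with either a single drug or a fixed anchor-drug dose combined with five library-drug doses (not always all listed) spaced in √10 steps. Five days later, one step fixed the cells and stained their nuclei (final 0.05% Triton X-100, 1% formaldehyde, 1 ug/ml Hoechst), and nuclei were counted on 4× images. Relative viability is the nuclei count in treated wells divided by the count in vehicle wells, and each value is the median of duplicate plates.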

Compound in experiment [2]: CN1CCC(CC1)OC2=CC(=C(C=C2)NC3=NC=C4C(=N3)N(C(=O)N4C)C5CCCC5)OC [AZ3146] + Cc1nc(NC(=O)N2CCC[C@H]2C(N)=O)sc1-c1ccnc(C(C)(C)C(F)(F)F)c1 [Alpelisib] (partner 2 µM)
Put shortly: as §1

Compound in experiment [3]: CCOC(=O)CCNc1cc(N2CCc3ccccc3CC2)nc(-c2ccccn2)n1 [GSK-J4] + Nc1ncn([C@H]2C[C@H](O)[C@@H](CO)O2)c(=O)n1 [Decitabine] (partner 2 µM)
The essentials: as §1

Compound in experiment [4]: CCOC(=O)CCNc1cc(N2CCc3ccccc3CC2)nc(-c2ccccn2)n1 [GSK-J4] + O=C(CCCCCCC(=O)Nc1ccccc1)NO [Vorinostat] (partner 1 µM)
Put shortly: as §1

As to RERF-LC-KJ, the relative viability was found to be 0.816 in experiment [1] (first compound 0.08 µM); 0.889 in experiment [1] (first compound 0.253 µM); 0.839 in experiment [1] (first compound 0.8 µM); 0.804 in experiment [1] (first compound 2.53 µM); 0.84 in experiment [1] (first compound 8 µM); 0.805 in experiment [2] (first compound 0.08 µM). Further, the relative viability in experiment [2] (first compound 0.253 µM) was found to be 0.834; in experiment [2] (first compound 0.8 µM) it was 0.685; in experiment [2] (first compound 2.53 µM), 0.888; in experiment [2] (first compound 8 µM), 0.747; in experiment [3] (first compound 0.5 µM) it was 0.624; in experiment [3] (first compound 1.581 µM), 0.605. Besides, the relative viability is 0.602 in experiment [3] (first compound 5 µM); 0.654 in experiment [3] (first compound 15.81 µM); 0.417 in experiment [3] (first compound 50 µM); 0.679 in experiment [4] (first compound 0.5 µM); 0.534 in experiment [4] (first compound 1.581 µM); 0.576 in experiment [4] (first compound 5 µM). The relative viability is 0.613 in experiment [4] (first compound 15.81 µM) and 0.485 in experiment [4] (first compound 50 µM).

For the cell line SK-LU-1, the relative viability in experiment [1] (first compound 0.08 µM) turned out to be 0.803; in experiment [1] (first compound 0.253 µM) it was 0.972; in experiment [1] (first compound 0.8 µM), 0.825; in experiment [1] (first compound 2.53 µM), 1.13; in experiment [1] (first compound 8 µM) it was 0.697; in experiment [2] (first compound 0.08 µM), 0.892. In addition, the relative viability in experiment [2] (first compound 0.253 µM) stood at 1.05; in experiment [2] (first compound 0.8 µM), 1.15; in experiment [2] (first compound 2.53 µM), 1.23; in experiment [2] (first compound 8 µM) it was 0.571; in experiment [3] (first compound 0.5 µM), 0.653; in experiment [3] (first compound 1.581 µM), 0.605. Besides, the relative viability in experiment [3] (first compound 5 µM) worked out at 0.538; in experiment [3] (first compound 15.81 µM), 0.633; in experiment [3] (first compound 50 µM) it was 0.524; in experiment [4] (first compound 0.5 µM) it was 0.751; in experiment [4] (first compound 1.581 µM) it was 0.679; in experiment [4] (first compound 5 µM) it was 0.626. Further, the relative viability came to 0.58 in experiment [4] (first compound 15.81 µM) and 0.578 in experiment [4] (first compound 50 µM).

For the cell line SK-MES-1, the relative viability in experiment [1] (first compound 0.08 µM) worked out at 0.496; in experiment [1] (first compound 0.253 µM), 0.43; in experiment [1] (first compound 0.8 µM) it was 0.424; in experiment [1] (first compound 2.53 µM), 0.523; in experiment [1] (first compound 8 µM) it was 0.432; in experiment [2] (first compound 0.08 µM), 0.785. The relative viability in experiment [2] (first compound 0.253 µM) came out at 0.93; in experiment [2] (first compound 0.8 µM), 0.866; in experiment [2] (first compound 2.53 µM), 0.836; in experiment [2] (first compound 8 µM) it was 0.932; in experiment [3] (first compound 0.5 µM), 0.389; in experiment [3] (first compound 1.581 µM), 0.359. The relative viability in experiment [3] (first compound 5 µM) is 0.386; in experiment [3] (first compound 15.81 µM) it was 0.321; in experiment [3] (first compound 50 µM) it was 0.323; in experiment [4] (first compound 0.5 µM) it was 0.986; in experiment [4] (first compound 1.581 µM), 0.968; in experiment [4] (first compound 5 µM), 1.04. Further, the values for the relative viability in experiment [4] (first compound 15.81 µM) and in experiment [4] (first compound 50 µM) were 1.04 and 0.524, respectively.

As for SW 1573, the relative viability was 1.19 in experiment [1] (first compound 0.08 µM); 1.17 in experiment [1] (first compound 0.253 µM); 1.07 in experiment [1] (first compound 0.8 µM); 1.04 in experiment [1] (first compound 2.53 µM); 1.05 in experiment [1] (first compound 8 µM); 0.843 in experiment [2] (first compound 0.08 µM). Further, the relative viability came out at 0.762 in experiment [2] (first compound 0.253 µM); 0.762 in experiment [2] (first compound 0.8 µM); 0.894 in experiment [2] (first compound 2.53 µM); 0.757 in experiment [2] (first compound 8 µM); 0.592 in experiment [3] (first compound 0.5 µM); 0.645 in experiment [3] (first compound 1.581 µM). The relative viability in experiment [3] (first compound 5 µM) was determined as 0.436; in experiment [3] (first compound 15.81 µM) it was 0.442; in experiment [3] (first compound 50 µM), 0.204; in experiment [4] (first compound 0.5 µM), 0.817; in experiment [4] (first compound 1.581 µM) it was 0.396; in experiment [4] (first compound 5 µM) it was 0.406. For the same cell line, the relative viability amounted to 0.845 in experiment [4] (first compound 15.81 µM) and 0.276 in experiment [4] (first compound 50 µM).
